# Source: paper PMC9181987, “Disclosing the Potential of Fluorinated Ionic Liquids as Interferon-Alpha 2b Delivery Systems” (Nanomaterials, 2022)
# “And” between values parts separate entries of the source, which are not always exact repeats. Equal entries are not always repeated. Where two headings read alike, the source gives them in different places.
# Experiments:
# [1] = Conductivity titration: critical aggregation concentrations, ionization degree, Gibbs free energy of aggregation; assay type: physicochemical; set-up: First CAC (wFIL) / Third CAC (wFIL): unit not given here; settings: 25°C
# Method: For this purpose, a CDM210 conductometer (Radiometer Analytical, Lyon, France) and a CDC749 electrode (Radiometer Analytical, Lyon, France) were utilized. The electrode was calibrated at 25 °C using two standard solutions of 0.1 and 0.01 D KCl (Radiometer Analytical). The standard solutions and samples were measured inside of a glass cell in a thermostated bath at 25 °C with constant magnetic stirring. […] Each sample was then placed on the cell, stirred, and had its ionic conductivity measured. […] This experimental procedure was carried out until the ionic conductivity reached a plateau. […] The ionic conductivity was measured at least three times before adding more solution and the uncertainty of each measurement was estimated to be less than 1%.
# A thorough analysis of the conductivity profile was advanced by applying the Phillips definition, which studies the change of the slopes of the conductivity curve along with the variation in FIL concentration.
# From the parameter α, the degree of counterion binding, β, can be calculated. This parameter is associated with the charge density at the surface, the size, and the hydrophobic nature of the aggregate. It is given by the following equation:β = 1 − α(1)
# Another parameter was considered in this study related to the spontaneity of a surfactant to aggregate, given by the standard Gibbs free energy of aggregation, ΔGagg0 . This parameter is provided by the pseudophase model of micellization, using the equation:(2) ΔGagg0=RT(1+β)lnxCAC where R is the universal gas constant, T is the absolute temperature and xCAC corresponds to the value of CAC in molar fraction. As long as this parameter is more negative, this means that the process of aggregation in the specific CACs is more spontaneous.
# [2] = Contact angle goniometry breakpoints; assay type: physicochemical; settings: 25°C
# Method: The force tensiometer is equipped with a platinum Du Noüy ring to surface tension measurement and a thermostatic vessel connected to a bath circulator (RW-0535G, Lab. Companion, Daejeon, Republic of Korea) in order to keep the temperature of the solution constant. Next, 15 mL of each sample was placed in a glass container and left to equilibrate in the thermostatic vessel. After temperature equilibration, the surface tension was measured. The equipment is a standalone-controlled instrument, and the calibration was conducted with a calibration weight with a known mass before measuring the samples. Each sample was measured five times, and the reported surface tension was the average value with an uncertainty of ±0.22 mN/m. Each solution was then assessed by a KSV’s contact angle goniometer CAM100 (Biolin Scientific, Gothenburg, Sweden). A drop of each solution was placed on a Teflon surface with a Hamilton syringe. This equipment is a PC-controlled instrument, and the tilt was set to 0 degrees at the base of the drop and was recorded for 10 frames with an interval of 1 s. The contact angle was calculated for the left and right sides of the drop and the mean value was the resulting contact angle. At least five different drops of each solution were recorded, and the reported contact angle was the resulting average with an uncertainty of ±5%.
# [3] = set-up: method as in earlier work; settings: Water, 25°C, ref [1]; cited from earlier work
# [4] = set-up: method as in earlier work; settings: 25°C, ref [1], cited from earlier work
# [5] = 10 μg/mL IFN-α 2b + 5 mM NaH2PO4 (pH=7.4)
# [6] = 5 μg/mL IFN-α 2b + 5 mM NaH2PO4 (pH=7.4), 1st breakpoint
# [7] = 5 μg/mL IFN-α 2b + 5 mM NaH2PO4 (pH=7.4), 2nd breakpoint
# [8] = 5 μg/mL IFN-α 2b + 5 mM NaH2PO4 (pH=7.4), 3rd breakpoint
# [9] = 5 μg/mL IFN-α 2b + 5 mM NaH2PO4 (pH=7.4), 4th breakpoint
structure (smiles),measurement,setting,value
"CCn1cc[n+](C)c1.O=S(=O)([O-])C(F)(F)C(F)(F)C(F)(F)C(F)(F)F [[C2C1Im][C4F9SO3], 1-Ethyl-3-methylimidazolium perfluorobutanesulfonate]",First CAC,[1]; [5],15.19 mmol/kg
same,First CAC (wFIL),[1]; [5],0.0062
same,"Gibbs free energy of aggregation ΔG0agg, First CAC",[1]; [5],-5.5 kcal/mol
same,"Gibbs free energy of aggregation ΔG0agg, Second CAC",[1]; [5],-4.85 kcal/mol
same,"Gibbs free energy of aggregation ΔG0agg, Third CAC",[1]; [5],-5.69 kcal/mol
same,Second CAC,[1]; [5],43.57 mmol/kg
same,Second CAC (wFIL),[1]; [5],0.0179
same,Third CAC,[1]; [5],83.44 mmol/kg
same,Third CAC (wFIL),[1]; [5],0.0342
same,"ionization degree α, First CAC",[1]; [5],0.87
same,"ionization degree α, Second CAC",[1]; [5],0.85
same,"ionization degree α, Third CAC",[1]; [5],0.52
same,First CAC,[1]; 5 mM NaH2PO4 (pH=7.4),13.75 mmol/kg
same,First CAC (wFIL),[1]; 5 mM NaH2PO4 (pH=7.4),0.0056
same,"Gibbs free energy of aggregation ΔG0agg, First CAC",[1]; 5 mM NaH2PO4 (pH=7.4),-5.66 kcal/mol
same,"Gibbs free energy of aggregation ΔG0agg, Second CAC",[1]; 5 mM NaH2PO4 (pH=7.4),-4.83 kcal/mol
same,"Gibbs free energy of aggregation ΔG0agg, Third CAC",[1]; 5 mM NaH2PO4 (pH=7.4),-6.36 kcal/mol
same,Second CAC,[1]; 5 mM NaH2PO4 (pH=7.4),46.13 mmol/kg
same,Second CAC (wFIL),[1]; 5 mM NaH2PO4 (pH=7.4),0.0189
same,Third CAC,[1]; 5 mM NaH2PO4 (pH=7.4),83.13 mmol/kg and 80.35 mmol/kg
same,Third CAC (wFIL),[1]; 5 mM NaH2PO4 (pH=7.4),0.0341
same,"ionization degree α, First CAC",[1]; 5 mM NaH2PO4 (pH=7.4),0.85
same,"ionization degree α, Second CAC",[1]; 5 mM NaH2PO4 (pH=7.4),0.85
same,"ionization degree α, Third CAC",[1]; 5 mM NaH2PO4 (pH=7.4),0.34
same,First CAC,[1]; 25 mM KH2PO4 (pH=6.8),1.99 mmol/kg
same,First CAC (wFIL),[1]; 25 mM KH2PO4 (pH=6.8),0.0008
same,"Gibbs free energy of aggregation ΔG0agg, First CAC",[1]; 25 mM KH2PO4 (pH=6.8),-10.7 kcal/mol
same,"Gibbs free energy of aggregation ΔG0agg, Second CAC",[1]; 25 mM KH2PO4 (pH=6.8),-5.76 kcal/mol
same,"Gibbs free energy of aggregation ΔG0agg, Third CAC",[1]; 25 mM KH2PO4 (pH=6.8),-7.15 kcal/mol
same,Second CAC,[1]; 25 mM KH2PO4 (pH=6.8),38.64 mmol/kg
same,Second CAC (wFIL),[1]; 25 mM KH2PO4 (pH=6.8),0.0158
same,Third CAC,[1]; 25 mM KH2PO4 (pH=6.8),71.45 mmol/kg
same,Third CAC (wFIL),[1]; 25 mM KH2PO4 (pH=6.8),0.0293
same,"ionization degree α, First CAC",[1]; 25 mM KH2PO4 (pH=6.8),0.24
same,"ionization degree α, Second CAC",[1]; 25 mM KH2PO4 (pH=6.8),0.66
same,"ionization degree α, Third CAC",[1]; 25 mM KH2PO4 (pH=6.8),0.18
same,First CAC,[1]; 100 mM HCl (pH=1.2),4.65 mmol/kg
same,First CAC (wFIL),[1]; 100 mM HCl (pH=1.2),0.0019
same,"Gibbs free energy of aggregation ΔG0agg, First CAC",[1]; 100 mM HCl (pH=1.2),-11.1 kcal/mol
same,"ionization degree α, First CAC",[1]; 100 mM HCl (pH=1.2),0.003
same,First CAC,[1]; 150 mM NaCl (pH=7.3),3.51 mmol/kg
same,First CAC (wFIL),[1]; 150 mM NaCl (pH=7.3),0.0014
same,"Gibbs free energy of aggregation ΔG0agg, First CAC",[1]; 150 mM NaCl (pH=7.3),-10.7 kcal/mol
same,"Gibbs free energy of aggregation ΔG0agg, Second CAC",[1]; 150 mM NaCl (pH=7.3),-5.47 kcal/mol
same,"Gibbs free energy of aggregation ΔG0agg, Third CAC",[1]; 150 mM NaCl (pH=7.3),-7 kcal/mol
same,Second CAC,[1]; 150 mM NaCl (pH=7.3),33.69 mmol/kg
same,Second CAC (wFIL),[1]; 150 mM NaCl (pH=7.3),0.0138
same,Third CAC,[1]; 150 mM NaCl (pH=7.3),83.46 mmol/kg
same,Third CAC (wFIL),[1]; 150 mM NaCl (pH=7.3),0.0342
same,"ionization degree α, First CAC",[1]; 150 mM NaCl (pH=7.3),0.14
same,"ionization degree α, Second CAC",[1]; 150 mM NaCl (pH=7.3),0.75
same,"ionization degree α, Third CAC",[1]; 150 mM NaCl (pH=7.3),0.17
same,First CAC,[1]; 150 mM NaH2PO4 (pH=7.4),14.57 mmol/kg
same,First CAC (wFIL),[1]; 150 mM NaH2PO4 (pH=7.4),0.0060
same,"Gibbs free energy of aggregation ΔG0agg, First CAC",[1]; 150 mM NaH2PO4 (pH=7.4),-5.59 kcal/mol
same,"Gibbs free energy of aggregation ΔG0agg, Second CAC",[1]; 150 mM NaH2PO4 (pH=7.4),-5.16 kcal/mol
same,"Gibbs free energy of aggregation ΔG0agg, Third CAC",[1]; 150 mM NaH2PO4 (pH=7.4),-7.05 kcal/mol
same,Second CAC,[1]; 150 mM NaH2PO4 (pH=7.4),32.93 mmol/kg
same,Second CAC (wFIL),[1]; 150 mM NaH2PO4 (pH=7.4),0.0135
same,Third CAC,[1]; 150 mM NaH2PO4 (pH=7.4),68.76 mmol/kg
same,Third CAC (wFIL),[1]; 150 mM NaH2PO4 (pH=7.4),0.0282
same,"ionization degree α, First CAC",[1]; 150 mM NaH2PO4 (pH=7.4),0.85
same,"ionization degree α, Second CAC",[1]; 150 mM NaH2PO4 (pH=7.4),0.82
same,"ionization degree α, Third CAC",[1]; 150 mM NaH2PO4 (pH=7.4),0.21
same,"CAC (wFIL), goniometer",[2]; [6],0.0009
same,"CAC, goniometer",[2]; [6],2.101 mmol⸱kg-1
same,"CAC (wFIL), goniometer",[2]; [7],0.0030
same,"CAC, goniometer",[2]; [7],7.288 mmol⸱kg-1
same,"CAC (wFIL), goniometer",[2]; [8],0.0157
same,"CAC, goniometer",[2]; [8],38.18 mmol⸱kg-1
same,"CAC (wFIL), goniometer",[2]; [9],0.0430
same,"CAC, goniometer",[2]; [9],104.7 mmol⸱kg-1
same,"CAC (wFIL), goniometer",[2]; 5 mM NaH2PO4 (pH=7.4),0.0329
same,"CAC, goniometer",[2]; 5 mM NaH2PO4 (pH=7.4),80.27 mmol⸱kg-1
same,First CAC,[3],14.55 mmol/kg
same,First CAC (wFIL),[3],0.0060
same,"Gibbs free energy of aggregation ΔG0agg, First CAC",[3],-5.9 kcal/mol
same,"Gibbs free energy of aggregation ΔG0agg, Second CAC",[3],-4.97 kcal/mol
same,"Gibbs free energy of aggregation ΔG0agg, Third CAC",[3],-6.57 kcal/mol
same,Second CAC,[3],38.54 mmol/kg
same,Second CAC (wFIL),[3],0.0158
same,Third CAC,[3],81.03 mmol/kg
same,Third CAC (wFIL),[3],0.0332
same,"ionization degree α, First CAC",[3],0.79
same,"ionization degree α, Second CAC",[3],0.84
same,"ionization degree α, Third CAC",[3],0.29
same,"Amin, minimum area per surfactant molecule at the air/water interface",[4],0.64 nm2
same,"10^6 Γmax, maximum surface excess concentration",[4]; Water,2.60 mol m-2
same,"CAC (wFIL), tensiometer",[4]; Water,0.0375
same,"CAC, tensiometer",[4]; Water,91.39 mmol⸱kg-1
same,critical packing parameter Peq 8,[4]; Water,0.439
same,critical packing parameter Peq 9,[4]; Water,0.442
same,"surface tension at CAC, γCAC",[4]; Water,24.5 mN m-1
same,"ΔG0ad, standard free energy of adsorption",[4]; Water,-10.6 kcal/mol
same,"ΠCAC, efficacy to reduce the surface tension",[4]; Water,44.4 mN m-1
